# Laboratory results as given in patent US7629150B2, “Transformed cell harboring DNA or RNA encoding sugar chain synthesizing agent having β1,3-N-acetylglucosaminyltransferase activity” (Kyowa Hakko Kirin Co., Ltd., priority 2000, dated 2009).
# Legend:
# Assay in all cases: β1,3-N-acetylglucosaminyltransferase activity of purified FLAG peptide-fused G6 polypeptide, 2-aminobenzamide-labeled oligosaccharide substrates
# Assay type in all cases: biochemical
# [1] = molecular target: T1, G6sec2 (Homo sapiens, UniProt Q9BYG0); settings: for Relative activity (%) Test 1 G6sec2 / Relative activity (%) Test 2 G6sec2: 2-aminobenzamide-labeled oligosaccharides, LNnT defined as 100%; for Relative activity (%) Test 2 G6sec2: enzyme prepared again
# T1 construct: made in house; host or cells: Sf21 insect cells infected with pVL1393-F2G6sec2-derived recombinant baculovirus
# T1 sequence (Q9BYG0 39-378): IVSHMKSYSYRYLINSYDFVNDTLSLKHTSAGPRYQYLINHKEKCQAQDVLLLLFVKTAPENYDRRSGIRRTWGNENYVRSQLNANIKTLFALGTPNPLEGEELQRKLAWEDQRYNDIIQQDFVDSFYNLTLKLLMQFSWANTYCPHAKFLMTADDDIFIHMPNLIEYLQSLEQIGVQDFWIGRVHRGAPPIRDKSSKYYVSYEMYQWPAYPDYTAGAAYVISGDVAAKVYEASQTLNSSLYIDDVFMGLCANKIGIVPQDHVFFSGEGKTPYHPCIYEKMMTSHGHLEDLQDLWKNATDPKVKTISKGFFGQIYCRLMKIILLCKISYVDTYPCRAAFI
# Procedure: (§1) β1,3-N-Acetylglucosaminyltransferase activity of the FLAG peptide-fused G6 polypeptide secreted and produced in insect cells was measured by using the eluate prepared in Example 8(6). The method of Example 7 was used for the activity measurement.
# (§2) As substrates, oligosaccharides [LNnT, Galβ1-4GlcNAcβ1-3Galβ1-4GlcNAc (hereinafter referred to as “2LN”), Galβ1-4GlcNAcβ1-3Galβ1-4GlcNAcβ1-3Galβ1-4GlcNAc (hereinafter referred to as “3LN”), Galβ1-4GlcNAcβ1-3Galβ1-4GlcNAcβ1-3Galβ1-4GlcNAcβ1-3Galβ1-4GlcNAc (hereinafter referred to as “4LN”), Galβ1-4GlcNAcβ1-3Galβ1-4GlcNAcβ-3Galβ1-4GlcNAcβ1-3Galβ1-4GlcNAcβ1-3Galβ1-4GlcNAc (hereinafter referred to as “5LN”), or Galβ1-4(SO3-6)GlcNAcβ1-3Galβ1-4(SO3-6)GlcNAc (hereinafter referred to as “L2L2”)] were labeled with 2-aminobenzamide and used. 2-Aminobenzamide-labeling of oligosaccharides was carried out using SIGMA 2AB glycan labeling kit (manufactured by Oxford Glycoscience) according to the manufacture's instructions of the kit. LNnT was purchased from Oxford Glycosystems. Other oligosaccharides were obtained from Seikagaku Corporation.
# Specifically, the reaction was carried out at 37° C. for 16 hours in 20 μl of an assay solution [150 mmol/l sodium cacodylate (pH 7.2), 50 mmol/l UDP-GlcNAc (manufactured by SIGMA), 0.4% Triton CF-54, 10 mmol/l MnCl2, 5 μmol/12-aminobenzamide-labeled sugar chain substrate, the above purified enzyme solution], and then the product was detected by high performance liquid chromatography (HPLC, details will be described below). As the enzyme, an eluate (1.5 μl) prepared from a culture supernatant of Sf21 infected with the recombinant virus derived from pVL1393-F2G6sec1 or an eluate (1.4 μl) prepared from a culture supernatant of Sf21 infected with the recombinant virus derived from pVL1393-F2G6sec2, prepared in Example 8(6), was used.
# (§3) The assay solution after completion of the reaction was treated at 100° C. for 5 minutes and then mixed with 50 μl of pure water for HPLC and centrifuged at 10,000×g for 5 minutes to obtain the supernatant. To a tube containing the assay solution, 50 μl of pure water for HPLC was added again, the tube was washed, and suparnatant was obtained by centrifugation at 10,000×g for 5 minutes and was combined with the first supernatant. Next, the supernatant was passed through Ultrafree-MC column (manufactured by Millipore) and a portion thereof (10 μl) was subjected to HPLC. The Ultrafree-MC column was used according to the method described in the manufacture's instructions attached thereto.
# (§4) The HPLC was carried out using TSK-gel ODS-80Ts Column (4.6×300 mm; manufactured by TOSOH) as a column and 0.02 mol/l ammonium acetate buffer containing 7% methanol (pH 4.0) as an eluant at an elution temperature of 50° C. and a flow rate of 1 ml/min.
# (§5) The product was detected using a fluorescence spectrophotometer FP-920 (manufactured by JASCO Corporation) (excitation wavelength: 330 nm, radiation wavelength: 420 nm).
# Also, a purified enzyme (G6sec2) was again prepared using the method shown in Example 8(6), its substrate specificity was again examined, and the results are also shown in Table 1 (Test 2 in Table 1). The purified enzyme (280 μl) was prepared from 30 ml of a culture supernatant of Sf21 infected with the recombinant virus derived from pVL1393-F2G6sec2, and the assay was carried out using a 4 μl portion thereof. Relative activities when the activity measured using 2-aminobenzamide-labeled LNnT as the substrate is defined as 100% are shown in the table.
# [2] = molecular target: T2, G6sec1 (Homo sapiens, UniProt Q9BYG0); settings: for Relative activity (%) Test 1 G6sec1: 2-aminobenzamide-labeled oligosaccharides, LNnT defined as 100%
# T2 construct: made in house; host or cells: Sf21 insect cells infected with pVL1393-F2G6sec1-derived recombinant baculovirus
# T2 sequence (Q9BYG0 36-378): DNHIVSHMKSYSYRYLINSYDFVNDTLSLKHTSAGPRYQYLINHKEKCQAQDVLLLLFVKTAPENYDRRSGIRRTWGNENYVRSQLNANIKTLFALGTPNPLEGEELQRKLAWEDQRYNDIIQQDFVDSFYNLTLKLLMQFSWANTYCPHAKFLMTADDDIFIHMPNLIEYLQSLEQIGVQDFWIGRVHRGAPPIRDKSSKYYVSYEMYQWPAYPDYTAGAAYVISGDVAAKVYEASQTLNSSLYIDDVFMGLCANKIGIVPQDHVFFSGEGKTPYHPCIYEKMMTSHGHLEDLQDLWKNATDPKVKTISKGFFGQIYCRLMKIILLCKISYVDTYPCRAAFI
# Procedure: as §1, §2
# Specifically, the reaction was carried out at 37° C. for 16 hours in 20 μl of an assay solution [150 mmol/l sodium cacodylate (pH 7.2), 50 mmol/l UDP-GlcNAc (manufactured by SIGMA), 0.4% Triton CF-54, 10 mmol/l MnCl2, 5 μmol/12-aminobenzamide-labeled sugar chain substrate, the above purified enzyme solution], and then the product was detected by high performance liquid chromatography (HPLC, details will be described below). […]
# as §3, §4, §5
# [3] = molecular target: T1, G6sec2; settings: second enzyme-adsorbed ANTI-FLAG M1 AFFINITY GEL (printed G6sec1-adsorbed gel) used as enzyme
SMILES,Relative activity (%) Test 1 G6sec2 [1],Relative activity (%) Test 2 G6sec2 [1],"conversion efficiency of the substrate into the product ([1]; G6sec2 eluate 1.4 μl, 2-aminobenzamide-labeled substrate, 37° C., 16 hours (Test 1))","conversion efficiency into the product ([1]; G6sec2 prepared again, 4 μl, 2-aminobenzamide-labeled substrate (Test 2))",Relative activity (%) Test 1 G6sec1 [2],conversion efficiency of the substrate ([2]; G6sec1-adsorbed ANTI-FLAG M1 AFFINITY GEL used as enzyme),"conversion efficiency of the substrate into the product ([2]; G6sec1 eluate 1.5 μl, 2-aminobenzamide-labeled substrate, 37° C., 16 hours (Test 1))",conversion efficiency of the substrate [3]
"CC(=O)N[C@H]1[C@H](O[C@H]2[C@@H](O)[C@@H](CO)O[C@@H](O[C@H]3[C@H](O)[C@@H](O)C(O)O[C@@H]3CO)[C@@H]2O)O[C@H](CO)[C@@H](O[C@@H]2O[C@H](CO)[C@H](O)[C@H](O)[C@H]2O)[C@@H]1O (mixture of isomers) [LNnT, lacto-N-neotetraose]",100%,100%,11.2%,26.2%,100%,6.64%,9.85%,20.2%
"CC(=O)N[C@H]1[C@H](O[C@H]2[C@@H](O)[C@@H](CO)O[C@@H](O[C@H]3[C@H](O)[C@@H](NC(C)=O)C(O)O[C@@H]3CO)[C@@H]2O)O[C@H](CO)[C@@H](O[C@@H]2O[C@H](CO)[C@H](O)[C@H](O)[C@H]2O)[C@@H]1O (some centres unmarked) [2LN, Galβ1-4GlcNAcβ1-3Galβ1-4GlcNAc]",86.8%,65.3%,,,81.4%,,,
